From ChEMBL document CHEMBL5291721, “A preclinical secondary pharmacology resource illuminates target-adverse drug reaction associations of marketed drugs” (Nat Commun, 2023) come the findings set out here.

One assay has as its target T1, Adenosine receptor A1 (Homo sapiens, UniProt P30542).
T1 sequence (P30542 whole entry): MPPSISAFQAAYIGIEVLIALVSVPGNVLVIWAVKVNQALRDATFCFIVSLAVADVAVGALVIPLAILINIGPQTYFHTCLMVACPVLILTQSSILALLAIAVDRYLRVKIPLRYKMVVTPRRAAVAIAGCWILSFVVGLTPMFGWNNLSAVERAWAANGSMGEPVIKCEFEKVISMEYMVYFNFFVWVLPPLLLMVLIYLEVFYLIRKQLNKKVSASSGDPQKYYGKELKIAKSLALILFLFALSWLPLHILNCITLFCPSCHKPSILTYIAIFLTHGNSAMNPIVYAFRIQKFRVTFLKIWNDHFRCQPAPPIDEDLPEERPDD

The target of assay [1] is T2, Alpha-2C adrenergic receptor (Homo sapiens, UniProt P18825).
T2 sequence (P18825 whole entry): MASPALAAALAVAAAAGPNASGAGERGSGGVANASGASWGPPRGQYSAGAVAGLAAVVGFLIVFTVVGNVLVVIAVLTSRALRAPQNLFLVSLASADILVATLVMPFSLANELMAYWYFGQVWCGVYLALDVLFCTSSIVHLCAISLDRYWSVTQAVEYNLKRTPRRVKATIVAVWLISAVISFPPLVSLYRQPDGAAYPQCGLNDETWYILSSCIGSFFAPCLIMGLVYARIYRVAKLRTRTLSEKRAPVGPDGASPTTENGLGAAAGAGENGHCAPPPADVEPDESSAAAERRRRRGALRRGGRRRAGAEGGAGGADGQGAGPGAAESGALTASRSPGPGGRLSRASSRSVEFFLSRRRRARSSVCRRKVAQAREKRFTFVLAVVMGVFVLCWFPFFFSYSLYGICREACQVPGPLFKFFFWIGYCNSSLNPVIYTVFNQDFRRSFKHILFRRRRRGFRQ
In kind it is functional.

Assay [2] addresses Neuronal acetylcholine receptor subunit alpha-4 (Homo sapiens, UniProt P43681).
For assay [3], the target named is T3, Cannabinoid receptor 1 (Homo sapiens, UniProt P21554).
In assay [4] the target is Gamma-aminobutyric acid receptor subunit alpha-1 (Rattus norvegicus, UniProt P62813). It is filed as functional.
The target of the next assay is Histamine H2 receptor (Homo sapiens, UniProt P25021). In kind it is functional, cell-based.
Assay [5] deals with T4, 5-hydroxytryptamine receptor 3A (Homo sapiens, UniProt P46098).
T4 sequence (P46098 whole entry): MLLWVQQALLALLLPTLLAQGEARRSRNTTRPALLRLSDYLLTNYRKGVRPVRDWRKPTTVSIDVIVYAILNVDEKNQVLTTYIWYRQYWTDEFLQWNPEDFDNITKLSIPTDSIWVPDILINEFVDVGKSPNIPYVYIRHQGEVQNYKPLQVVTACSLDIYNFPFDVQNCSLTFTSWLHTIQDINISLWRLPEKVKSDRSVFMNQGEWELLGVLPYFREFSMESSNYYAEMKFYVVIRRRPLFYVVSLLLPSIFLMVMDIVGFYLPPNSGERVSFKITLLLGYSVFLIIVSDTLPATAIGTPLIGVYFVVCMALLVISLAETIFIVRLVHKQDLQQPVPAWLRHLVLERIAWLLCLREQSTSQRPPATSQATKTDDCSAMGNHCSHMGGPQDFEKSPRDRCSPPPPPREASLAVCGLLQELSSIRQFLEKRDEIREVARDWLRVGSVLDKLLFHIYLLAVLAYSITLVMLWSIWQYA
It is filed as functional.

In assay [6] the target is Kappa-type opioid receptor (Homo sapiens, UniProt P41145).
A further assay addresses T5, Endothelin-1 receptor (Homo sapiens, UniProt P25101).
T5 sequence (P25101 whole entry): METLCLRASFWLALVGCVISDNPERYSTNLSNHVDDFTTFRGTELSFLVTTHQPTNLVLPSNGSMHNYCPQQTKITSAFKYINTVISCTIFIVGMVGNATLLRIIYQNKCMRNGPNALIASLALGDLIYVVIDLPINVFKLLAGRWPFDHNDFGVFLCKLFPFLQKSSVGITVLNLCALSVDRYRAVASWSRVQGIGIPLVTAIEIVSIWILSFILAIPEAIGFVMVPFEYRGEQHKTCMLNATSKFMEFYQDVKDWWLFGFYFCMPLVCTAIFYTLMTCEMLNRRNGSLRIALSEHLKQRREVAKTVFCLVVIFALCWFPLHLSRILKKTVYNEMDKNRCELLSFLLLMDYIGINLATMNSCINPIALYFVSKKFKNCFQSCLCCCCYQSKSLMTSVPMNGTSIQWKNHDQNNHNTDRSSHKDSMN

For another assay, the target named is T6, Estrogen receptor (Homo sapiens, UniProt P03372).
T6 sequence (P03372 whole entry): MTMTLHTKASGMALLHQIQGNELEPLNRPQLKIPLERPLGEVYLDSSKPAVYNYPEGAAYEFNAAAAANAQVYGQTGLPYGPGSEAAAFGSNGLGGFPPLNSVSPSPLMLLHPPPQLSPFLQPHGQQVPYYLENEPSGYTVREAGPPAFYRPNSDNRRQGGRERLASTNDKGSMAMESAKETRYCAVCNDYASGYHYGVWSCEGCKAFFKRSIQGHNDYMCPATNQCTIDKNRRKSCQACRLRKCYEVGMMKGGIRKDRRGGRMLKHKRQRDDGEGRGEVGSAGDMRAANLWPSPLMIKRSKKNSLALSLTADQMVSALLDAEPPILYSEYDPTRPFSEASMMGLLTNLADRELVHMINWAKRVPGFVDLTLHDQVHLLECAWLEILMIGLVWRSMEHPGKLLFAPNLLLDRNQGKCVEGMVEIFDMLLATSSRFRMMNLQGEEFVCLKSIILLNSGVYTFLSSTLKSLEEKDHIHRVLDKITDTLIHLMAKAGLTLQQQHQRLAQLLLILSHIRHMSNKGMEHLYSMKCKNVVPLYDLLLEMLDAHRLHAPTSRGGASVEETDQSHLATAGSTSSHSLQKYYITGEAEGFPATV

The target of another assay is Histamine H3 receptor (Homo sapiens, UniProt Q9Y5N1).
Assay [7] has as its target T3, Cannabinoid receptor 1. In kind it is functional, cell-based.
Further: assay procedure not described here.

Neuronal acetylcholine receptor subunit alpha-4, sequence (P43681 whole entry): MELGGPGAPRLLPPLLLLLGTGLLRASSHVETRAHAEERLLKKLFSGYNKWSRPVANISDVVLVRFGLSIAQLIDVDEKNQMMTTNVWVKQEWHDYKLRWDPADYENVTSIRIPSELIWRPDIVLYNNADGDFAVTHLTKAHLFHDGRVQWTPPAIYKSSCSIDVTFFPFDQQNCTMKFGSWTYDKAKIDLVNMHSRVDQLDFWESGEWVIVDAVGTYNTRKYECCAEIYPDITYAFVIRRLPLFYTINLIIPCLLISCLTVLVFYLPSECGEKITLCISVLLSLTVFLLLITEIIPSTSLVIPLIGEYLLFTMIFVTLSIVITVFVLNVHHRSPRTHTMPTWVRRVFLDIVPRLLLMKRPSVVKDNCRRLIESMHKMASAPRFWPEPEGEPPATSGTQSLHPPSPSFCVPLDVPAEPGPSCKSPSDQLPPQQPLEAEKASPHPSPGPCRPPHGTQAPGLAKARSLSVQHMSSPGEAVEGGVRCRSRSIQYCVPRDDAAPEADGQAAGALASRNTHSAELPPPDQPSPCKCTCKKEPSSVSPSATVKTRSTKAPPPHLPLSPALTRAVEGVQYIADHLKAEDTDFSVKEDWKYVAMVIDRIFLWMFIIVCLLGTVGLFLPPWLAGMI
Histamine H2 receptor, sequence (P25021 whole entry): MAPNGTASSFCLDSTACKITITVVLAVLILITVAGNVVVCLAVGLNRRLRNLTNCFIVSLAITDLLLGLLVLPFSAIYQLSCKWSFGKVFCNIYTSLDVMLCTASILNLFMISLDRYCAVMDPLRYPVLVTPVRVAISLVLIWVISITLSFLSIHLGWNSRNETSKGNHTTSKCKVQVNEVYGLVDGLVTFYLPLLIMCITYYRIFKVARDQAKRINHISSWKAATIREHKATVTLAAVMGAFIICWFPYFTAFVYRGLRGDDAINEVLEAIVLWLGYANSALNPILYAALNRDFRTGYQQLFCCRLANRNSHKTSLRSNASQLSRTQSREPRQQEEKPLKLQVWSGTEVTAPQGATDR
Histamine H3 receptor, sequence (Q9Y5N1 whole entry): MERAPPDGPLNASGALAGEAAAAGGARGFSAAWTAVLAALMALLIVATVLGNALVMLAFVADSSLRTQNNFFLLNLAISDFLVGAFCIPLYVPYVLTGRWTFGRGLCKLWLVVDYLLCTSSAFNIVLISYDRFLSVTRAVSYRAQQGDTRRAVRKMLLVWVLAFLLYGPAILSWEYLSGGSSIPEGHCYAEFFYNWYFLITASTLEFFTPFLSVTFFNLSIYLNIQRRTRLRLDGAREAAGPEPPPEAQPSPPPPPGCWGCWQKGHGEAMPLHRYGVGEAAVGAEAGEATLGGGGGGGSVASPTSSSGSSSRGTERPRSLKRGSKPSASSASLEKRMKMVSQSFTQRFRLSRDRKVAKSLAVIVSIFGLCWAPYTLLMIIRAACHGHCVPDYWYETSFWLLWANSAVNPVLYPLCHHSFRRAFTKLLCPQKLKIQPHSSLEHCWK
Kappa-type opioid receptor, sequence (P41145 whole entry): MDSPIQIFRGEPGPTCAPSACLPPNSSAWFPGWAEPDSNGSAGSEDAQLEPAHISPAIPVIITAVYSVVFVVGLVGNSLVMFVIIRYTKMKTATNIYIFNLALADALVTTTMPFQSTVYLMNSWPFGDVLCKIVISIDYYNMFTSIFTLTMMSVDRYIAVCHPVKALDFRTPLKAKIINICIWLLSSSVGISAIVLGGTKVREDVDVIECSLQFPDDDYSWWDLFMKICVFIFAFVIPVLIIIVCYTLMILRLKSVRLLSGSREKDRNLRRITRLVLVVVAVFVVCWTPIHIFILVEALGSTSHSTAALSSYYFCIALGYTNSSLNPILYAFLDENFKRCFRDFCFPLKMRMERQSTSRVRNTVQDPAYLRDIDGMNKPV
T3 sequence (P21554 whole entry): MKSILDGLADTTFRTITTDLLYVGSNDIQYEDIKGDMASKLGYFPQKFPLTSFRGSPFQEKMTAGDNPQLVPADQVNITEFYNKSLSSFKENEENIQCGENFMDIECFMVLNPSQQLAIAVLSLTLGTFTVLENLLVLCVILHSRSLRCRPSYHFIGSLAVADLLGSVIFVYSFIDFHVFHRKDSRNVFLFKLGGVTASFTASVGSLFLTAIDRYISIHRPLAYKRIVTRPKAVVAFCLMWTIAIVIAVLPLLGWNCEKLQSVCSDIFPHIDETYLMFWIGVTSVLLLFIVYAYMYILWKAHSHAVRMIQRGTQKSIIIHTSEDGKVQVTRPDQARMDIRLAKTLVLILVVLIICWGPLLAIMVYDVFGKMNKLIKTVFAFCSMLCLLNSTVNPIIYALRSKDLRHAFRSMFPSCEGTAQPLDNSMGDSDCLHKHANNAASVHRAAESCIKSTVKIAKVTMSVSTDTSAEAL
Gamma-aminobutyric acid receptor subunit alpha-1, sequence (P62813 whole entry): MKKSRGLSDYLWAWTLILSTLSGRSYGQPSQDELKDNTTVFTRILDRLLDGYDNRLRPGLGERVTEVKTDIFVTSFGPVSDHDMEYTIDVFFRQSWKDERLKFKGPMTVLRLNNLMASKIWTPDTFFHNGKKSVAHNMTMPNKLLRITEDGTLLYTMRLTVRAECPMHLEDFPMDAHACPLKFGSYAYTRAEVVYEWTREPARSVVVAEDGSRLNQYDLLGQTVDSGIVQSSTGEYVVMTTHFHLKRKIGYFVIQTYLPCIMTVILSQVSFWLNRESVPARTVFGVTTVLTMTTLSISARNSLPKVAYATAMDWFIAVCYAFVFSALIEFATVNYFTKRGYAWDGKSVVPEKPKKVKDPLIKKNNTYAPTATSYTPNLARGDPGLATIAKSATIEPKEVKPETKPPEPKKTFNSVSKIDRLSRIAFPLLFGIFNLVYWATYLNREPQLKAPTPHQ

Consider `COc1ccc2cc(CCC(C)=O)ccc2c1` [NABUMETONE], for which the AC50 at Adenosine receptor A1 was > 10 µM; in assay [1] it was > 30 µM; in assay [2] it was > 10 µM; at Cannabinoid receptor 1 [3], > 10 µM; in assay [4], > 10 µM; on Histamine H2 receptor it was > 30 µM. For the same molecule, the results for the AC50 in [5] and in assay [6] were > 30 µM and > 10 µM, respectively.
With `O=c1c(O)c(-c2ccc(O)c(O)c2)oc2cc(O)cc(O)c12` [QUERCETIN], the AC50 in assay [1] is > 10 µM; in [2], > 10 µM; at Endothelin-1 receptor, > 30 µM; on Estrogen receptor, > 30 µM; at Histamine H2 receptor it was > 30 µM; in assay [5], > 30 µM. Further, the values for the AC50 (in assay [6]; on Histamine H3 receptor) were 12.7 µM and > 10 µM, respectively.
Turning to `CCCN(CCC)S(=O)(=O)c1ccc(C(=O)O)cc1` [PROBENECID], the AC50 (on Adenosine receptor A1; in assay [1]; in assay [2]; at Cannabinoid receptor 1 [3]; in assay [4]; at Histamine H2 receptor) was > 10 µM throughout. The AC50 is > 30 µM in assay [5] and > 10 µM in [6].
`CCC(=O)O[C@](Cc1ccccc1)(c1ccccc1)[C@H](C)CN(C)C` [PROPOXYPHENE]: the AC50 was > 30 µM on Adenosine receptor A1; > 10 µM in [1]; > 10 µM in [2]; > 30 µM on Cannabinoid receptor 1 [7]; > 10 µM on Cannabinoid receptor 1 [3]; > 30 µM on Endothelin-1 receptor. Also, the AC50 in assay [4] was > 10 µM; on Histamine H2 receptor, > 10 µM; in assay [5], > 30 µM; on Histamine H3 receptor, > 10 µM.
Turning to `C[C@]12C/C(=C/O)C(=O)C[C@@H]1CC[C@@H]1[C@@H]2CC[C@@]2(C)[C@H]1CC[C@]2(C)O` [OXYMETHOLONE], the AC50 (on Adenosine receptor A1; in assay [1]; in assay [2]; at Cannabinoid receptor 1 [7]; at Endothelin-1 receptor; on Estrogen receptor) was > 30 µM throughout. Further, the AC50 (in assay [4]; at Histamine H2 receptor; in [5]; in [6]; on Histamine H3 receptor) was > 30 µM each time.
For `CCC1(CCC(C)C)C(=O)NC(=O)NC1=O` [AMOBARBITAL], the AC50 (on Adenosine receptor A1; in assay [1]; in assay [2]; at Cannabinoid receptor 1 [3]; in [4]; on Histamine H2 receptor) was > 10 µM each time. In addition, the AC50 in assay [5] is > 30 µM; in assay [6], > 10 µM.
`CCCCCCCC(=O)CC[C@@H]1[C@@H](C/C=C\CCCC(=O)OC(C)C)[C@@H](O)C[C@H]1O` [UNOPROSTONE ISOPROPYL] displayed an AC50 in [1] of 13 µM.
Regarding `Cc1cc(C)nc(NS(=O)(=O)c2ccc(N)cc2)n1` [SULFAMETHAZINE], the AC50 is > 10 µM on Adenosine receptor A1; > 30 µM in assay [1]; > 10 µM in assay [2]; > 10 µM on Cannabinoid receptor 1 [3]; > 10 µM in assay [4]; > 30 µM at Histamine H2 receptor. Also, the AC50 in assay [5] was > 30 µM; in [6], > 10 µM.
Regarding `CC(C)NC[C@H](O)COc1ccc(CC(N)=O)cc1` [ESATENOLOL], the AC50 is > 30 µM at Adenosine receptor A1; > 10 µM in assay [1]; > 30 µM at Endothelin-1 receptor; > 30 µM on Estrogen receptor; > 10 µM on Histamine H2 receptor; > 10 µM in assay [5]. In addition, the AC50 in [6] is > 10 µM.
For the molecule `CCN1CC(CCN2CCOCC2)C(c2ccccc2)(c2ccccc2)C1=O` (configuration not stated) [DOXAPRAM], the AC50 (at Adenosine receptor A1; in assay [1]; in [2]; at Cannabinoid receptor 1 [7]; at Endothelin-1 receptor; in assay [4]) was > 30 µM each time. For the same molecule, the AC50 (on Histamine H2 receptor; in assay [5]; in [6]; at Histamine H3 receptor) was > 30 µM each time.
With `C[C@@H]1C[C@H]2[C@@H]3CCC4=CC(=O)C=C[C@]4(C)[C@@]3(F)[C@@H](O)C[C@]2(C)[C@@]1(O)C(=O)CO` [DEXAMETHASONE], the AC50 at Adenosine receptor A1 is > 30 µM; in assay [1], > 30 µM; in assay [2] it was > 30 µM; at Cannabinoid receptor 1 [3], > 10 µM; in assay [4], > 10 µM; at Histamine H2 receptor, > 30 µM. Further, the values for the AC50 (in assay [5]; in assay [6]; on Histamine H3 receptor) were > 30 µM, > 10 µM and > 30 µM, respectively.
On to `COc1cc(C(=O)NC2CCCNC2)cc(OC)c1OC` (configuration not stated) [TROXIPIDE], for which the AC50 (on Adenosine receptor A1; in assay [1]; in assay [2]; at Cannabinoid receptor 1 [7]; on Endothelin-1 receptor; in assay [4]) was > 30 µM in each case. Moreover, the AC50 on Histamine H2 receptor is > 30 µM; in assay [5] it was > 30 µM; in [6], 16 µM; at Histamine H3 receptor, > 30 µM.
Consider `CCOC(=O)c1ccc(C#Cc2ccc3c(c2)C(C)(C)CCS3)nc1` [TAZAROTENE], for which the AC50 is > 30 µM on Adenosine receptor A1; > 10 µM in assay [1]; > 10 µM in assay [2]; > 10 µM on Cannabinoid receptor 1 [3]; > 10 µM in assay [4]; > 30 µM on Histamine H2 receptor. The AC50 is > 30 µM in assay [5], > 10 µM in [6] and > 10 µM on Histamine H3 receptor.
For `O=C(CCCN1CCC(O)(c2ccc(Br)cc2)CC1)c1ccc(F)cc1` [BROMPERIDOL], the AC50 (at Adenosine receptor A1; in assay [2]; at Cannabinoid receptor 1 [7]; at Endothelin-1 receptor; at Estrogen receptor; in assay [4]) was > 30 µM throughout. Further, the AC50 was > 30 µM on Histamine H2 receptor, > 30 µM in assay [5], 10 µM in assay [6] and > 30 µM on Histamine H3 receptor.

The term AC50 denotes the midpoint of the concentration-response curve, whichever way the signal moves. Low values mean greater potency, high ones weaker potency.
